Laboratory results taken from patent US20070203212A1, “METHOD OF TREATING OSTEOARTHRITIS” (WARNER-LAMBERT COMPANY, priority 2002, published 2007).

How the values were obtained:
[1] = test system: monosodium iodoacetate (MIA)-induced osteoarthritis; experiment: MIA rat model, acute single oral dose: change in hind paw weight distribution (joint pain); assay type: in vivo; conditions: for Day 7 2 hr. (% ± SEM) inhibition of MIA-induced change in hind paw weight distribution / Day 7 4 hr. (% ± SEM) inhibition of MIA-induced change in hind paw weight distribution / Day 14 2 hr. (% ± SEM) inhibition of MIA-induced change in hind paw weight distribution / Day 14 4 hr. (% ± SEM) inhibition of MIA-induced change in hind paw weight distribution / Day 7 6 hr. (% ± SEM) inhibition of MIA-induced change in hind paw weight distribution / Day 14 6 hr. (% ± SEM) inhibition of MIA-induced change in hind paw weight distribution: single oral dose 30 mg/kg; for Day 7 2 hr. (% ± SEM) inhibition of MIA-induced change in hind paw weight distribution: Day 7, 2 hours post dose; for Day 7 4 hr. (% ± SEM) inhibition of MIA-induced change in hind paw weight distribution: Day 7, 4 hours post dose; for Day 14 2 hr. (% ± SEM) inhibition of MIA-induced change in hind paw weight distribution: Day 14, 2 hours post dose; for Day 14 4 hr. (% ± SEM) inhibition of MIA-induced change in hind paw weight distribution: Day 14, 4 hours post dose; for Day 7 6 hr. (% ± SEM) inhibition of MIA-induced change in hind paw weight distribution: Day 7, 6 hours post dose; for Day 14 6 hr. (% ± SEM) inhibition of MIA-induced change in hind paw weight distribution: Day 14, 6 hours post dose
Experimental: (§1) It should be appreciated that in Biological Methods 1, 2, 4, and 5 below, hind paw weight bearing differentials between the paw of the limb having the control joint (in animals administered test compound vehicle only) and the paw of the limb having the contralateral test joint (in control or inducement animals administered test compound vehicle only and in treatment animals administered test compound dissolved in test compound vehicle) were determined using an incapacitance tester, model 2KG (Linton Instrumentation, Norfolk, United Kingdom). The incapacitance tester has a chamber on top with an outwardly sloping front wall that supports a rat's front limbs, and two weight sensing pads, one for each hind paw, that facilitates this determination. The hind paw weight bearing differentials were expressed in grams and calculated as follows: (the average weight in grams placed on the control limb minus the average weight in grams placed on the contralateral test limb for each of the inducement or treatment animals) minus (the average weight in grams placed on the control limb minus the average weight in grams placed on the contralateral test limb for each of the control animals). All results were statistically analyzed by comparing the average results for an induction or treatment group with the average result for its control group at the same time point using analysis of covariance (“ANCOVA”) followed by the Hoehberg's procedure and those with statistical significance had p<0.05 unless otherwise noted.
The rats were anesthetized with 5% volume/volume (“v/v”) isoflurane gas and maintained with 2% v/v isoflurane gas. The anesthetized rats were given a single intra-articular injection of 1 mg of MIA through the infrapatellar ligament of the right knee. MIA was dissolved in physiologic saline and administered in a volume of 50 μL. The contralateral control knee was injected with 50 μL of physiologic saline. Administration of isoflurane gas was discontinued, and the rats became fully conscious about 5 minutes later.
Shifts in hind paw weight distribution from the right to the left hind paws supporting the right (arthritic) and the left (contralateral control) hind leg knee joints were utilized as an index of joint pain and as a measure of compound efficacy. An incapacitance tester (Model 2KG, Linton Instrumentation, UK) was employed for determination of hind paw weight distribution. Each data point is the mean of three readings of 5 seconds duration.
CI-1027 (i.e., 6-(5-carboxy-5-methyl-hexyloxy)-2,2-dimethyl-hexanoic acid, calcium salt) was dissolved in hydroxypropylmethylcellulose (“HPMC”) vehicle (0.05% HPMC+0.2% Tween 80; compound amount was adjusted based on the percent of free acid, i.e., 6-(5-carboxy-5-methyl-hexyloxy)-2,2-dimethyl-hexanoic acid).
[…] Rats were then given a single, 10, 30, or 100 mg/kg, dose of CI-1027 via oral gavage (PO). Changes in hind paw weight distribution were determined 2, 4 and 6 hours post-compound administration.
6-(5-carboxy-5-methyl-hexyloxy)-2,2-dimethyl-hexanoic acid, calcium salt (“CI-1027”) and rofecoxib was tested in the rat MIA model in an acute dosing paradigm as described previously. MIA was injected into the right knee and saline into the left knee of all rats on Day 0. […] Two hours later, the rats were reassessed. The results for inhibition of pain, expressed as a percentage±standard error of the mean, are shown below in Table 5. The percent inhibition of pain was determined as described above in Biological Method 1. […] N=8 rats per group.

[2] = test system: carrageenan-induced thermal hyperalgesia; experiment: Carrageenan-induced thermal hyperalgesia (CITH), paw withdrawal latency; assay type: in vivo, rat; conditions: Day 1
Experimental: Male Sprague Dawley rats (200-300 g), obtained from Charles River, were housed in groups of 2 under a 12 hour light/dark cycle with food and water ad libitum. Animals were allowed to acclimate to the test room one hour prior to testing.
Thermal hyperalgesia was assessed using the rat plantar test (apparatus from Univ. California, San Diego) following a modified method of Hargreaves et al., 1988. Rats were habituated to the apparatus, which consisted of three perspex boxes that individually housed […] on an elevated glass table. A mobile radiant heat source (halogen lamp) was located under the glass table and focused onto the hind paw. Paw withdrawal latencies (PWL) were recorded in seconds (“s”). An automatic cut off point of 22.5 s was set to prevent tissue damage. The mean of 2-3 PWL was taken at each time point for both hind paws of each animal. The apparatus was calibrated to give a PWL of approximately 10 s before carrageenan administration.
After basal PWL were determined, animals receive an intraplantar 100 μL of 10 mg/mL) into the right hind paw. Lambda carrageenan (Sigma Chemical Co.) was dissolved in isotonic saline 5 minutes prior to injecting. PWL were reassessed following the same protocol 2 hours post carrageenan (this time point represented the start of peak hyperalgesia) to ascertain that hyperalgesia had developed. 6-(5-Carboxy-5-methyl-hexyloxy)-2,2-dimethyl-hexanoic acid, calcium salt was then administered orally via oral dosing needles 2.5 hours post carrageenan injection, and PWL were taken again at 30- or 60-minute intervals post drug administration for 6 hours.
Data consisted of the mean of 2-3 reads/paw for individual animals. Group data was the compiled individual means. Percent inhibition was calculated as follows for each time point: (mean drug treated−mean control)/(mean baseline−mean control)×100.

[3] = test system: human recombinant IL-6/IL-6sR induced joint pain; experiment: IL-6 with IL-6 soluble receptor induced joint pain in rat; assay type: in vivo; conditions: single oral dose 30 mg/kg
Experimental: as §1
Human recombinant IL-6 (100 ng per rat; R&D Systems, Minneapolis, Minn.) was incubated at room temperature with human recombinant IL-6 soluble receptor (300 ng per rat; R&D Systems, Minneapolis, Minn.) in phosphate buffered saline (“PBS”) for 15 minutes prior to injection. Rats were anesthetized with 5% volume/volume (“v/v”) isoflurane gas and maintained with 2% v/v isoflurane gas. The anesthetized rats were given a single intra-articular injection of IL-6/WL-6sR through the infrapatellar ligament of the right knee in a volume of 50 μL. The contralateral control knee was injected with 50 μL of PBS. Administration of isoflurane gas was discontinued, and the rats became fully conscious about 5 minutes later.
Shifts in hind paw weight distribution from the right (arthritic) to the left (contralateral control) paws were utilized as an index of joint pain and as a measure of compound efficacy. An incapacitance tester (Model 2KG, Linton Instrumentation, UK) was employed for determination of hind paw weight distribution. Each data point is the mean of three, 5-second readings.
CI-1027 was dissolved in BPMC vehicle as described above. Baseline changes in hind paw weight distribution readings were determined one day prior to injection of IL-6/IL-6sR. On the day of the experiment (Day 0), a single dose of CI-1027 (10, 30 or 100 mg/kg) was given via oral gavage 3 hours prior to injection of IL-6/IL-6sR (n=10 rats per group). Changes in hind paw weight distribution were determined one, three, and six hours after injection of IL-6/IL-6sR.
In Table 4 below, data from the method of Biological Method 5 are expressed as a percent inhibition of a change in hind paw weight distribution ± the standard error of the mean. The percents inhibition were calculated as follows. Percent inhibition of a change in hind paw weight distribution [formula] wherein: ΔWC is the hind-paw weight differential between the healthy limb and the hrIL-6+ hrIL-6sR injected limb of the control animal group administered vehicle alone, as measured at time 1, 3, or 6 hours post injection; and
ΔWG is the hind-paw weight differential between the healthy limb and the hrIL-6+ hrIL-6sR injected limb of a treatment animal group as measured at time 1, 3, or 6 hours post injection.

[4] = test system: monoclonal antibody-induced arthritis; experiment: Monoclonal antibody-induced arthritis (MAIA) mouse model, footpad and ankle swelling; assay type: in vivo; design: footpad and ankle swelling: dose or concentration left out as unconfirmed; conditions: BALB/c mice
Experimental: In a typical MAIA experiment, groups of four mice were injected intraperitoneally (“i.p.”) with 0.4 mL (BALB/c and DBA/1 strains) or 0.8 mL (C57BL/6, 129X1/SvJ, C3H/HeJ, and C3H/FeJ strains) with a 10 mg/mL solution of Arthrogen-CIA Monoclonal Antibody Blend (Chemicon International, Inc.). Two days later, the mice were injected i.p. with 0.2 mL of a 0.25 mg/mL solution of LPS (lipopolysaccharide form Escherichia coli (“E. coli”) strain 0111B4) in PBS. Footpad and ankle size was assessed using a Dyer Digital Caliper (#655-030-4916) on the day of mAb injection, and every two days following LPS injection.

## CC(C)(CCCCCOCCCCCC(C)(C)C(=O)O)C(=O)O [A1, 7,7′-oxybis(2,2-dimethylheptanoic acid)]
[1]
  Day 7 2 hr. (% ± SEM) inhibition of MIA-induced change in hind paw weight distribution: 50 ± 11%
  Day 7 4 hr. (% ± SEM) inhibition of MIA-induced change in hind paw weight distribution: 15 ± 14%
  Day 14 2 hr. (% ± SEM) inhibition of MIA-induced change in hind paw weight distribution: −3 ± 15%
  Day 14 4 hr. (% ± SEM) inhibition of MIA-induced change in hind paw weight distribution: −9 ± 17%
[2]; single oral dose 30 mg/kg
  CITH (%) percentage inhibition, paw withdrawal latency: 22%

## CC(C)(CCCOCCCC(C)(C)C(=O)O)C(=O)O [A2, 5,5′-oxybis(2,2-dimethylpentanoic acid)]
[1]
  Day 7 2 hr. (% ± SEM) inhibition of MIA-induced change in hind paw weight distribution: −11 ± 15^ %
  Day 7 4 hr. (% ± SEM) inhibition of MIA-induced change in hind paw weight distribution: 16 ± 15%
  Day 14 2 hr. (% ± SEM) inhibition of MIA-induced change in hind paw weight distribution: 9 ± 13%
  Day 14 4 hr. (% ± SEM) inhibition of MIA-induced change in hind paw weight distribution: 9 ± 20%
[2]; single oral dose 30 mg/kg
  CITH (%) percentage inhibition, paw withdrawal latency: −3%

## CC(C)(CCOCCC(C)(C)C(=O)O)C(=O)O [A3, 4,4′-oxybis(2,2-dimethylbutanoic acid)]
[1]
  Day 7 2 hr. (% ± SEM) inhibition of MIA-induced change in hind paw weight distribution: 20 ± 4%
  Day 7 4 hr. (% ± SEM) inhibition of MIA-induced change in hind paw weight distribution: 34 ± 5%
  Day 7 6 hr. (% ± SEM) inhibition of MIA-induced change in hind paw weight distribution: 81 ± 6%
  Day 14 2 hr. (% ± SEM) inhibition of MIA-induced change in hind paw weight distribution: 33 ± 7%
  Day 14 4 hr. (% ± SEM) inhibition of MIA-induced change in hind paw weight distribution: 36 ± 3%
  Day 14 6 hr. (% ± SEM) inhibition of MIA-induced change in hind paw weight distribution: 27 ± 9%
[2]; single oral dose 30 mg/kg
  CITH (%) percentage inhibition, paw withdrawal latency: 20%

## CC(C)(CCCCCCCCCC(C)(C)C(=O)O)C(=O)O [A4, 2,2,12,12-tetramethyltridecanedioic acid]
[1]
  Day 7 2 hr. (% ± SEM) inhibition of MIA-induced change in hind paw weight distribution: 25 ± 5%
  Day 7 4 hr. (% ± SEM) inhibition of MIA-induced change in hind paw weight distribution: 38 ± 7%
  Day 7 6 hr. (% ± SEM) inhibition of MIA-induced change in hind paw weight distribution: 43 ± 6%
  Day 14 2 hr. (% ± SEM) inhibition of MIA-induced change in hind paw weight distribution: 35 ± 6%
  Day 14 4 hr. (% ± SEM) inhibition of MIA-induced change in hind paw weight distribution: 29 ± 8%
  Day 14 6 hr. (% ± SEM) inhibition of MIA-induced change in hind paw weight distribution: 55 ± 7%
[3]; Day 1, 1 hour post injection of IL-6/IL-6sR
  1 hr. (% ± SEM) inhibition of (IL-6/IL-6sR)-induced change in hind paw weight distribution: 70 ± 9%
[3]; Day 1, 3 hours post injection of IL-6/IL-6sR
  3 hr. (% ± SEM) inhibition of (IL-6/IL-6sR)-induced change in hind paw weight distribution: 79 ± 5%
[3]; Day 1, 6 hours post injection of IL-6/IL-6sR
  6 hr. (% ± SEM) inhibition of (IL-6/IL-6sR)-induced change in hind paw weight distribution: 26 ± 6%
[2]; single oral dose 30 mg/kg
  CITH (%) percentage inhibition, paw withdrawal latency: 118%
[2]; single oral dose 100 mg/kg
  CITH (%) percentage inhibition, paw withdrawal latency: 115%

## CS(=O)(=O)c1ccc(C2=C(c3ccccc3)C(=O)OC2)cc1 [Rofecoxib, reference compound]
[1]; rofecoxib 3 mg/kg PO alone, Day 14
  Mean pain alleviation at 2 hours post administration (% ± SEM): 23 ± 7%

## CN(Cc1cnc2nc(N)nc(N)c2n1)c1ccc(C(=O)N[C@@H](CCC(=O)O)C(=O)O)cc1 [methotrexate, N-[4-[[(2,4-diamino-6-pteridinyl)methyl]methylamino]benzoyl]-L-glutamic acid, reference compound]
[4]
  footpad and ankle swelling: significantly inhibit footpad and ankle swelling
